# Tests used:
# Experiment in all cases: biochemical
# Design in all cases: DiscoverX kinase panel, active-site competition binding (KINOMEscan type), percent of control at one concentration
# Conditions in all cases: competition binding, percent of control
# [1] = target: CAMK1D (Homo sapiens, UniProt Q8IU85)
# [2] = target: T1, CDK11 (Homo sapiens, UniProt Q9BWU1)
# T1 construct: gene CDK19
# [3] = target: CHEK1 (Homo sapiens, UniProt O14757)
# [4] = target: CSNK1D (Homo sapiens, UniProt P48730)
# [5] = target: EGFR(L861Q) (Homo sapiens, UniProt P00533, L861Q)
# [6] = target: FLT3(D835Y) (Homo sapiens, UniProt P36888, D835Y)
# [7] = target: T2, HPK1 (Homo sapiens, UniProt Q92918)
# T2 construct: gene MAP4K1
# [8] = target: T3, JAK2(JH1domain-catalytic) (Homo sapiens, UniProt O60674)
# T3 construct: JH1domain-catalytic
# [9] = target: MERTK (Homo sapiens, UniProt Q12866)
# [10] = target: T4, MLK3 (Homo sapiens, UniProt Q16584)
# T4 construct: gene MAP3K11
# [11] = target: T5, MST1 (Homo sapiens, UniProt Q13043)
# T5 construct: gene STK4
# [12] = target: PIP5K1A (Homo sapiens, UniProt Q99755)
# [13] = target: RIOK3 (Homo sapiens, UniProt O14730)
# [14] = target: T6, RSK2(Kin.Dom.1-N-terminal) (Homo sapiens, UniProt P51812)
# T6 construct: gene RPS6KA3; Kin.Dom.1-N-terminal
# [15] = target: SGK3 (Homo sapiens, UniProt Q96BR1)
# [16] = target: TAOK1 (Homo sapiens, UniProt Q7L7X3)
# [17] = target: TGFBR1 (Homo sapiens, UniProt P36897)
# [18] = target: TGFBR2 (Homo sapiens, UniProt P37173)
# [19] = target: TIE1 (Homo sapiens, UniProt P35590)
# [20] = target: T7, TYK2(JH2domain-pseudokinase) (Homo sapiens, UniProt P29597)
# T7 construct: JH2domain-pseudokinase
# [21] = target: WNK4 (Homo sapiens, UniProt Q96J92)
# Sequence of MERTK (Q12866 whole entry): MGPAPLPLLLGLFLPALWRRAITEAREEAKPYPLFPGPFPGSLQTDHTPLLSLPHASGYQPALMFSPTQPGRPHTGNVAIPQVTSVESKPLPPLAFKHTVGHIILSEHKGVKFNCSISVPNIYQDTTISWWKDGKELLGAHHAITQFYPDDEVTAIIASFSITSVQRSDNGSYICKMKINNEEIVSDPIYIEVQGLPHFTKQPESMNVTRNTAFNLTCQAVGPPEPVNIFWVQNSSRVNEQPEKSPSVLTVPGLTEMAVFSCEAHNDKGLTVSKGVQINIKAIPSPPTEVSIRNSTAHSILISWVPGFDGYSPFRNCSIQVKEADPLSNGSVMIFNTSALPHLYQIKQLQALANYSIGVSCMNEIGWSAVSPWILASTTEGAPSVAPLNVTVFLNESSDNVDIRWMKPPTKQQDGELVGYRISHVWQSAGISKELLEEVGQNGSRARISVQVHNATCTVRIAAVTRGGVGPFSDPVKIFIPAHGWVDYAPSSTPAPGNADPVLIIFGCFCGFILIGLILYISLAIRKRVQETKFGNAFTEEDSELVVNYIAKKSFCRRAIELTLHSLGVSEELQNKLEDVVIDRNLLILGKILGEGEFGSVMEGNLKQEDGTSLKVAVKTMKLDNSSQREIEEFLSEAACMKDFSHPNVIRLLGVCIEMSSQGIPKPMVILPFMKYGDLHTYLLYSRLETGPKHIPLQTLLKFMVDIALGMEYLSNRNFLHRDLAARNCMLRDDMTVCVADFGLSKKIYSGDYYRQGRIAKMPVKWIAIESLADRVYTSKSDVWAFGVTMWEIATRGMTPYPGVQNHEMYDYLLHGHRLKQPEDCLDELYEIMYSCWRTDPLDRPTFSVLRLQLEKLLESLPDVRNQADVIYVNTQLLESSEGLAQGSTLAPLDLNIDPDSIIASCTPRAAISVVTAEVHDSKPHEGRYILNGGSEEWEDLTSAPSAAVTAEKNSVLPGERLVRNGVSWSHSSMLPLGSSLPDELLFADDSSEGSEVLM
# Sequence of TAOK1 (Q7L7X3 whole entry): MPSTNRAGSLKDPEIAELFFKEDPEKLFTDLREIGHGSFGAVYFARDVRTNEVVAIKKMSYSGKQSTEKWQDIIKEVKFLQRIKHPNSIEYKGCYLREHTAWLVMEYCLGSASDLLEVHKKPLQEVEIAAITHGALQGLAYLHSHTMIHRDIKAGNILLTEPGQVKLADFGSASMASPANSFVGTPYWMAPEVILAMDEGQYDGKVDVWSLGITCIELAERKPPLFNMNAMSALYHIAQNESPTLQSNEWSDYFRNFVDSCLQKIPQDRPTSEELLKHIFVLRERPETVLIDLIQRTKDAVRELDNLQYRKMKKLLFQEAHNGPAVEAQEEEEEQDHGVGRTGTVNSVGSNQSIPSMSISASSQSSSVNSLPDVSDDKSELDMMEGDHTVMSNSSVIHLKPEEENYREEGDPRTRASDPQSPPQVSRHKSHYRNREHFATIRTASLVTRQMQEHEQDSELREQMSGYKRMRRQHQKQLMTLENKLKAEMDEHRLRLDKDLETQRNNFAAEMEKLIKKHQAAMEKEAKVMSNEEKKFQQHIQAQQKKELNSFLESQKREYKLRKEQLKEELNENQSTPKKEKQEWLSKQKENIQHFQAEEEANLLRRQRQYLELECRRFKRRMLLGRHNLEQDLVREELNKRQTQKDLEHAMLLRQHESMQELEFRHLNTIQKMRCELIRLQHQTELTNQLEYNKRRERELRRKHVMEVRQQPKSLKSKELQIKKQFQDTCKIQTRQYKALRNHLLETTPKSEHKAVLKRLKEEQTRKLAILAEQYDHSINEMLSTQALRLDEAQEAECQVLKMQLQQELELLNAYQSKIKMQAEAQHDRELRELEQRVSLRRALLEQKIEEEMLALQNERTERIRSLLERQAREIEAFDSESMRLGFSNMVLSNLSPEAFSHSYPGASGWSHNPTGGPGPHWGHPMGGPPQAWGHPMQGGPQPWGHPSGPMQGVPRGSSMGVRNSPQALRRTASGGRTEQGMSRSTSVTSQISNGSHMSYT
# Sequence of TGFBR1 (P36897 whole entry): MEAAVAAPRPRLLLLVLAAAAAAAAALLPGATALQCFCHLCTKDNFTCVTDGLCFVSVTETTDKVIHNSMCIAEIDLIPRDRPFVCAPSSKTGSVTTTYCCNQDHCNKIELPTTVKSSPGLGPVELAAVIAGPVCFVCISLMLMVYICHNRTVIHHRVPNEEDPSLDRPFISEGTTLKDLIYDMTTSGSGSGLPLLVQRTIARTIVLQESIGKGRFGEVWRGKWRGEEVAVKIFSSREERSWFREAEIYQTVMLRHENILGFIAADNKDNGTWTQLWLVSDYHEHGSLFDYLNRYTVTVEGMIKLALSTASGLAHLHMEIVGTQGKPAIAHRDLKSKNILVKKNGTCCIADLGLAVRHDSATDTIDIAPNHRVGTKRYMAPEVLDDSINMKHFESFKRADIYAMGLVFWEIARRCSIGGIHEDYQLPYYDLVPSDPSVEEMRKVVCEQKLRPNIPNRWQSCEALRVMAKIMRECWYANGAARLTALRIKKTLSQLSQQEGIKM
# Sequence of CAMK1D (Q8IU85 whole entry): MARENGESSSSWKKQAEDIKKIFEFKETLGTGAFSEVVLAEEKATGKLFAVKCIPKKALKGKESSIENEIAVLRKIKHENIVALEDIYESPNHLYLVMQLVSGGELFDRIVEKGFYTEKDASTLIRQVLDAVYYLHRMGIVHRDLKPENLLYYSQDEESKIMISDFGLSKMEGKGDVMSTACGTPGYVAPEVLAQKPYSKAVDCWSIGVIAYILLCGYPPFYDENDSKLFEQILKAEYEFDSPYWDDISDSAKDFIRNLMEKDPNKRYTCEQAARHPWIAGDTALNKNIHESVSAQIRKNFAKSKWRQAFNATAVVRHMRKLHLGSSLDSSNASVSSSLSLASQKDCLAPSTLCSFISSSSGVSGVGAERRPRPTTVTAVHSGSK
# Sequence of CSNK1D (P48730 whole entry): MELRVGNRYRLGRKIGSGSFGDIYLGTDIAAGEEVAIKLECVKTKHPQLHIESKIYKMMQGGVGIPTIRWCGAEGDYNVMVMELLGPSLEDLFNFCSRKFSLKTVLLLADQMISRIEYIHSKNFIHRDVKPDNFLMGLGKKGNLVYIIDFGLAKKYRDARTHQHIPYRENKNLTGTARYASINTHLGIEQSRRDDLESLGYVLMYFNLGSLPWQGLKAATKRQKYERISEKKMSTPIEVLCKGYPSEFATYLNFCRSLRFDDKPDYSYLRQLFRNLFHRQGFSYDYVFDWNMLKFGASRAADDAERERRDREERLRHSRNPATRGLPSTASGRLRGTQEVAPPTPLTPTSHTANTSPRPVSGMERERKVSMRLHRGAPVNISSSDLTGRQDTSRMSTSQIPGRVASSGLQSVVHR
# Sequence of CHEK1 (O14757 whole entry): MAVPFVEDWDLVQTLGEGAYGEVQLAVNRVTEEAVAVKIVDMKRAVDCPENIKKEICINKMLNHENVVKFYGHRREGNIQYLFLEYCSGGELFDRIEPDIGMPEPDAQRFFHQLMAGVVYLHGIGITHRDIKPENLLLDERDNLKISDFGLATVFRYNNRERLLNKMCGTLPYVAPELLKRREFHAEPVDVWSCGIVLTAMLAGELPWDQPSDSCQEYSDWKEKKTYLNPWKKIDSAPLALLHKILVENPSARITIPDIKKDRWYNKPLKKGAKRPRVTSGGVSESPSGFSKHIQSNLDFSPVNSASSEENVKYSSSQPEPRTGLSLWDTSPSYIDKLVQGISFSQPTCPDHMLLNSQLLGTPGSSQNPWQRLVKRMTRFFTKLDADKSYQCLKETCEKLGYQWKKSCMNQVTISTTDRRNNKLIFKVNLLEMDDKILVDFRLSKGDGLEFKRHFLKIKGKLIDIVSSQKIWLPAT
# Sequence of PIP5K1A (Q99755 whole entry): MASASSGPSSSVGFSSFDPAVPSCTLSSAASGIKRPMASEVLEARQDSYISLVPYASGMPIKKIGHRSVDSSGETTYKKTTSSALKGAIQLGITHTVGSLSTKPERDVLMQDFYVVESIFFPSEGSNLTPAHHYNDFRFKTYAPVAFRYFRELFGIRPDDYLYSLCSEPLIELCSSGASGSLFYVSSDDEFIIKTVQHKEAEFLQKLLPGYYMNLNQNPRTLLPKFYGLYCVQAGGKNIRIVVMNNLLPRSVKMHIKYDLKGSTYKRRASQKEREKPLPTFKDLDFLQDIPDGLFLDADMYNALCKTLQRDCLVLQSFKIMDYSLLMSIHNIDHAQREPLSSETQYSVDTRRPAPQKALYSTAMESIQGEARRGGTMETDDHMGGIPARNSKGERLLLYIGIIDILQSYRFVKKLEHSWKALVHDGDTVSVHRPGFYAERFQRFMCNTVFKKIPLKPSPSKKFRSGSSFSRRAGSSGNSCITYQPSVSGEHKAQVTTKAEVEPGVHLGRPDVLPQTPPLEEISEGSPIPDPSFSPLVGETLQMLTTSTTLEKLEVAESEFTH
# Sequence of TGFBR2 (P37173 whole entry): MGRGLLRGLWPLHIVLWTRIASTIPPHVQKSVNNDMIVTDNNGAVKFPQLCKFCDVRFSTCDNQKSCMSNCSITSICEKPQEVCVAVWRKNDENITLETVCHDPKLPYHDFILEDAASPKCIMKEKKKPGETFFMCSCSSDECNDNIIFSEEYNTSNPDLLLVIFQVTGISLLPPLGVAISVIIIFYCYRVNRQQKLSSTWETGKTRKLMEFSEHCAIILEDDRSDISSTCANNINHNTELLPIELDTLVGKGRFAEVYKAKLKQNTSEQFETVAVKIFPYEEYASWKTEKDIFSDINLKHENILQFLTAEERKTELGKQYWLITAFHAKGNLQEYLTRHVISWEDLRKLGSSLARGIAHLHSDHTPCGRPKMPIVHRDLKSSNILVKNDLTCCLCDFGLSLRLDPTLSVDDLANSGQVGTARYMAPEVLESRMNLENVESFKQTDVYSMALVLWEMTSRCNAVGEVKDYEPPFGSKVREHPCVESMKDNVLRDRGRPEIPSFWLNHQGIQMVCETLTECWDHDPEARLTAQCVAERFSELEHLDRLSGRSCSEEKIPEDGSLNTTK
smiles,measurement,setting,value
"COc1cc2c(cn1)N(C)C(=O)[C@@H](NC(=O)c1nc3n(n1)[C@H](c1ccccc1)CC3)CC2 [GNE684, (S)-N-((S)-7-methoxy-1-methyl-2-oxo-2,3,4,5-tetrahydro-1H-pyrido[3,4-b]azepin-3-yl)-5-phenyl-6,7-dihydro-5H-pyrrolo[1,2-b][1,2,4]triazole-2-carboxamide]",remaining binding at 10 µM,[1],98%
same,remaining binding at 10 µM,[2],81%
same,remaining binding at 10 µM,[3],100%
same,remaining binding at 10 µM,[4],100%
same,remaining binding at 10 µM,[5],96%
same,remaining binding at 10 µM,[6],100%
same,remaining binding at 10 µM,[7],98%
same,remaining binding at 10 µM,[8],100%
same,remaining binding at 10 µM,[9],90%
same,remaining binding at 10 µM,[10],100%
same,remaining binding at 10 µM,[11],85%
same,remaining binding at 10 µM,[12],99%
same,remaining binding at 10 µM,[13],100%
same,remaining binding at 10 µM,[14],65%
same,remaining binding at 10 µM,[15],93%
same,remaining binding at 10 µM,[16],100%
same,remaining binding at 10 µM,[17],97%
same,remaining binding at 10 µM,[18],94%
same,remaining binding at 10 µM,[19],88%
same,remaining binding at 10 µM,[20],100%
same,remaining binding at 10 µM,[21],100%

# Source: article PMC7206119, “RIP1 inhibition blocks inflammatory diseases but not tumor growth or metastases” (Cell Death and Differentiation, 2019)
